# What was measured:
# [1] = system: A375 cells; assay: Internalization of PEI-modified IgG (4.5 PEIs) in the presence of endocytosis inhibitors; assay type: cell-based; settings: overnight, PEI-modified mouse IgG (4.5 PEIs)
# Description: Cationized moieties are thought to internalize using a natural endocytosis mechanism. The two relevant endocytosis mechanisms are caveolin- and clathrin-mediated endocytosis. The exact mechanism of internalization was elucidated by performing the internalization of PEI-modified IgG in the presence of known specific endocytosis inhibitors. A375 cells were incubated overnight with PEI-modified mouse IgG (4.5 PEIs) in the presence of Clathrin inhibitors (Amantadine or Chlorpromazine) or a Caveolin inhibitor (Genistein). […] This corroborates that Caveolin-mediated endocytosis is exploited by the PEI-modified payloads for internalization as inhibition of Clathrin-mediated endocytosis caused a compensatory increase in Caveolin-mediated endocytosis in the cells.
# [2] = system: A375 cells; assay: Intracellular BRAF inhibition: Annexin V apoptosis assay in A375 cells (IncuCyte, CellTiter-Glo normalisation); assay type: cell-based; settings: 1 μM or 3 μM agent, BRAF inhibitor at 10 μM
# Description: FIGS. 42A-42D. A375 cells were seeded in 96 plate wells for 24 h to allow cells adherence (1500 cells/well). To each well a sample of the tested agent was added at the desired concentration (42A-42B) 1 μM; (42C-42D) […], except BRAF inhibitor, PF-04880594 that was added at 10 μM. (42A, 42C) Red area obtained from the Annexin V red reagent, a commonly used fluorescent dye identifying apoptotic cells, monitored in IncuCyte®. (42B, 42D) Red area normalized to the value obtained by CellTiter-Glo corresponding to intact cells.
# Random modification was achieved by reaction of 1C5-Hel20-LC with PEI1800 in the presence of EDC, to give 1C5-Hel20-LC-r-C(O)—NH-PEI1800 (S8). The different constructs of payload conjugated directly to PEI were evaluated for their ability to penetrate A375 cells and induce apoptosis following BRAF inhibition. […]
# 1C5-Hel20-LC-HSA-PEI (S5C)×n conjugates were prepared by reduction of 1C5-Hel20-LC and activation with 2,2′-Dithiobis(5-nitropyridine) followed by conjugation to HSA-PEI×n. Intracellular BRAF inhibition by the different constructs was evaluated by a functional assay in A375 cells. The different conjugates were incubated with A375 cells in the presence of Annexin V red reagent, for 6 days, while monitoring fluorescence in IncuCyte® to identify apoptotic cells (FIG. 42A, C). […]
# [3] = Zeta potential measurement (Zeta Sizer Ultra); assay type: physicochemical; settings: alternative carriers and HSA before and after PEI modification; STD in separate column
# Description: Zeta potential measurements were preformed using Zeta Sizer Ultra (Malvern Instruments). Samples' buffers were exchanged to 1 mM NaCl at 1 mg/mL protein concentration. 20 μL from each sample was loaded in zeta cells (DTS1070), five repeats for each sample were measured and the mean zeta potential in mV was obtained for each repeat. The average for the five measurements is reported with the standard deviation. The measurements were performed under the following conditions: temperature 25° C.; run numbers for each repeat 10-40; equilibration time: 60 seconds, without pause after sub runs; 60 seconds pause between repeats; voltage was selected automatic and monomodal analysis method was used in the data processing.
# Zeta potential measurements were preformed using Zeta Sizer Ultra (Malvern Instruments), samples buffer was exchanged to 1 mM NaCl at 1 mg/mL protein concentration. 20 μL from each sample were loaded in zeta cells (DTS1070), five repeats for each sample were measured and the mean zeta potential in mV was obtained.
Compound,effect on internalization of PEI-modified IgG [1],also measured
CN(C)CCCN1c2ccccc2Sc2ccc(Cl)cc21 [Chlorpromazine],resulted in increased internalization,–
O=c1c(-c2ccc(O)cc2)coc2cc(O)cc(O)c12 [Genistein],inhibited the internalization of PEI-modified IgG,–
"N#CCCNc1nccc(-c2cn(CC(F)F)nc2-c2cnc3[nH]ccc3c2)n1 [PF-04880594, reference compound]",–,apoptosis (Annexin V red signal) [2]: highly potent cell killer
Fibrinogen,–,Zeta potential (mV) [3]: −1.4 mV
